Results taken from publication PMC3692431, “Anticonvulsant Activity of B2, an Adenosine Analog, on Chemical Convulsant-Induced Seizures” (PLoS ONE, 2013).
Read-outs that look alike come from different tables or passages of the source.

Legend:
A1 adenosine receptor = target: T1, A1 adenosine receptor (Rattus norvegicus, UniProt P25099); assay: Radioligand binding, [3H]DPCPX displacement in rat cortical membranes; conditions: 0.2 nM [3H]DPCPX
T1 construct: from tissue; host or cells: cerebral cortex of male Wistar rats
T1 sequence (P25099 1-326): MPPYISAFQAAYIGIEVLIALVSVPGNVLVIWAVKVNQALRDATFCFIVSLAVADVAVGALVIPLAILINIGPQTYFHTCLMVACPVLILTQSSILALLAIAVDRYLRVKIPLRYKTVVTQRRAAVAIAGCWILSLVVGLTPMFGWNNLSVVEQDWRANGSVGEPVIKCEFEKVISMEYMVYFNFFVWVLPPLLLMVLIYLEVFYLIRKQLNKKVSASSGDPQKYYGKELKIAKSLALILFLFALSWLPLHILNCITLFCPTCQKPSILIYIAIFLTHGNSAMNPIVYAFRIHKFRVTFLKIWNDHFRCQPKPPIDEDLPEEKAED

[1] = system: c-Fos expression in the hippocampus; assay: PTZ-induced c-Fos expression, western blot; type: in vivo, mice; conditions: B2 5 mg/kg + PTZ 85 mg/kg, 2 h, PTZ alone 8 times
Description: Mice were injected with either B2 (5 mg/kg) or vehicle 20 min before administration of PTZ (85 mg/kg). Two hours later, mice were either anesthetized for c-Fos analysis using immunohistochemistry or decapitated or western blotting.
Mice were decapitated and the hippocampus was quickly dissected on ice. The hippocampus was then homogenized in 20 volumes of cell lysis buffer. The homogenates were incubated on ice for 15 min and centrifuged at 12000×g for 5 min at 4°C. The supernatant containing the crude nuclear extract was collected and the protein content estimated using a Bradford assay. Protein samples […] were electrophoresed in 10% SDS-PAGE at 150 V for 3 h. The samples were then electroblotted onto nitrocellulose membranes at 20 V. The membranes were blocked using 5% dry non-fat milk in 0.1% TBST solution, and incubated overnight on a shaker with anti-c-Fos rabbit antibody (SC-52g) diluted 1∶800 (Santa Cruz Biotechnology). On the following day, the blots were washed using 0.1% TBST solution and incubated for 2 h with anti-rabbit peroxidase-conjugated secondary antibody. The blots were then washed using 0.1% TBST solution. After adding super ECL plus solution, the protein bands were detected using ECL (Fuji Digital Science), as described by the manufacturer. The optical density of the intensity of the bands was measured using Gel Pro Analyzer (version 4.0).

PC12 cell = system: PC12 cell; parameters: method as in PMID 22242450; conditions: cited from earlier work
KA-induced seizures = KA-induced seizures in mice; type: in vivo; conditions: KA 0.7 µg i.c.v.
Description: (§1) KA was dissolved in saline and the pH was adjusted to neutrality. The final concentration of KA was 0.7 µg/µl, and the convulsant dose was 1 µl (i.c.v.). […] The selective adenosine receptor antagonist DPCPX or SCH58261 was administered (i.p.) 5 min before administration of B2 or vehicle.
The left lateral ventricle (0.6 mm posterior, 1.9 mm lateral, and 2.1 mm ventral to bregma) was cannulated as described. After a 7-day recovery period, mice were injected with either B2 (1.25, 5, 20 mg/kg) or vehicle. Twenty minutes later, an intracerebroventricular injection of KA (0.7 µg/µl, 1 µl) was administered without anesthesia. The animals were then observed for a minimum of 60 min. Seizure severity was determined according to the scoring system described by Racine. At the end of the experiment, cannulae placement was verified.

PTZ-induced seizures = PTZ-induced seizures in mice; type: in vivo; conditions: PTZ 85 mg/kg s.c.; for seizure occurrence: all control mice seized; for latency to seizure onset prolonged by / number of seizures reduced by: vs control
Description: (§2) The latency of seizure onset, number of seizures, and mortality rate was recorded for the picrotoxin-injected mice. For the PTZ-injected mice, we recorded the latency of seizure onset, number of seizures, and presence of clonic seizures.

4-AP-induced seizures = 4-AP-induced seizures in mice; type: in vivo; conditions: 4-AP 13 mg/kg; for latency of seizure onset prolonged by: vs control
Description: as §1
(§3) Mice were injected with B2 (1.25, 5, 20 mg/kg), carbamazepine (80 mg/kg) or vehicle 20 min before administration of strychnine (1.5 mg/kg) or 4-AP (13 mg/kg). […] The time of latency to seizure onset and mortality rate were recorded.

[2] = system: rat adenosine A2A receptors; parameters: method as in PMID 22242450; conditions: cited from earlier work
[3] = system: strychnine-induced seizures; assay: Strychnine-induced seizures in mice; type: in vivo; conditions: strychnine 1.5 mg/kg i.p.; for mortality rate: control 88%; for latency to seizure onset prolonged by: vs control
Description: as §1, §3

[4] = system: picrotoxin-induced seizures; type: in vivo, mice; conditions: picrotoxin 3.5 mg/kg; for mortality rate: control 50%; for latency to seizure onset prolonged by / number of seizures reduced by: vs control
Description: as §1, §2

## COc1cc(CNc2ncnc3c2ncn3[C@@H]2O[C@H](CO)[C@@H](O)[C@H]2O)ccc1O [B2, N^6-(3-methoxyl-4-hydroxybenzyl) adenine riboside]
A1 adenosine receptor
  Ki: 420 nM
[1]
  c-Fos expression in the hippocampus, times larger than vehicle control group: 1.5 times
PC12 cell
  PC12 cell survival in serum deprivation-induced apoptosis: remarkably increased
KA-induced seizures; B2 1.25 mg/kg i.p.
  average seizure duration: 5.3 ± 0.8 min
KA-induced seizures; B2 5 mg/kg i.p.
  average seizure duration: 3.7 ± 0.7 min
KA-induced seizures; B2 20 mg/kg i.p.
  average seizure duration: 3.3 ± 1.0 min
PTZ-induced seizures; B2 1.25 mg/kg i.p.
  seizure occurrence: 70%
  latency to seizure onset prolonged by: 43%
  number of seizures reduced by: 39%
PTZ-induced seizures; B2 5 mg/kg i.p.
  seizure occurrence: 30%
  latency to seizure onset prolonged by: 89%
  number of seizures reduced by: 70%
PTZ-induced seizures; B2 20 mg/kg i.p.
  seizure occurrence: 50%
  latency to seizure onset prolonged by: 93%
  number of seizures reduced by: 62%
4-AP-induced seizures; B2 1.25 mg/kg i.p.
  latency of seizure onset prolonged by: 25%
4-AP-induced seizures; B2 5 mg/kg i.p.
  latency of seizure onset prolonged by: 135%
4-AP-induced seizures; B2 20 mg/kg i.p.
  latency of seizure onset prolonged by: 96%
4-AP-induced seizures; B2 1.25, 5, 20 mg/kg i.p., control 100%
  effect on mortality rate: did not have a significant effect
[2]
  affinity for rat adenosine A2A receptors: moderate affinity
[3]; B2 1.25 mg/kg i.p.
  mortality rate: 71%
  latency to seizure onset prolonged by: 45%
[3]; B2 5 mg/kg i.p.
  mortality rate: 43%
  latency to seizure onset prolonged by: 88%
[3]; B2 20 mg/kg i.p.
  mortality rate: 57%
  latency to seizure onset prolonged by: 89%
[4]; B2 1.25 mg/kg i.p.
  mortality rate: 25%
  latency to seizure onset prolonged by: 64%
  number of seizures reduced by: 18%
[4]; B2 5 mg/kg i.p.
  mortality rate: 13%
  latency to seizure onset prolonged by: 242%
  number of seizures reduced by: 64%
[4]; B2 20 mg/kg i.p.
  mortality rate: 25%
  latency to seizure onset prolonged by: 183%
  number of seizures reduced by: 53%
